Read-outs that look alike come from different tables or passages of the source. Marks after values point to notes of the source that are not given here.

This test deals with NA of A/Texas/12/2007 (H3N2 119 V) (Influenza A virus (A/Texas/12/2007(H3N2)), UniProt D1FVK3, I119V). The test is described as follows: biochemical. The class given is biochemical.

Compound `CC(=O)N[C@H]1[C@H]([C@H](O)[C@H](O)CO)OC(C(=O)O)=C[C@@H]1N=C(N)N` [Zanamivir, zanamivir] returned an IC50 of 1.56 ± 0.55 nM.

For oseltamivir carboxylate, the Fold change is on record as 520.08^c fold. In addition, the IC50 (read-out: Mean IC50 (nM) ± SD) turned out to be 62.4 ± 2.16 nM.

The IC50 is the concentration that inhibits the measured activity by half.

For the origin of these results see article PMC6604316 (Virology Journal, 2019).
